In US20180206499A1, “METHOD OF IMPROVING PLANT HEALTH AND ROOTING OF PLANTS” (Bayer CropScience LP, priority 2017, published 2018):

Assays:
Type in all cases: in vivo
Loblolly pine (P. taeda) = experiment: Pinus taeda seed pot test, soil sprayed with indaziflam composition; conditions: Esplanade 200SC soil spray; for root weight: untreated root approx. 0.06 grams; for shoot weight: untreated shoot approx. 0.19 grams
Method: Loblolly pine (P. taeda) seeds were soaked in water for 24 hours and then placed in cold storage in a punctured bag for four weeks.
(§1) 20 seeds were placed in pots on soil surface and topdressed with one cup of sandy loam soil, about ⅛″ to ¼″ deep. The pots were irrigated and allowed to settle for 24 hours.
(§2) The soil was sprayed with a commercially available composition comprising indaziflam (commercial name Esplanade 200SC) using a single nozzle with a compressed CO2 backpack set at 32 psi for 25 gallons per acre. Overhead irrigation was set for twice daily.

[1] = system: Shortleaf pine (P. echinata); experiment: Pinus echinata seed pot test, soil sprayed with indaziflam composition; conditions: soil spray; for root weight: untreated root approx. 0.05 grams; for shoot weight: untreated shoot approx. 0.10 grams
Method: Shortleaf pine (P. echinata) seeds were soaked in water for 24 hours and then placed in cold storage in a punctured bag for four weeks.
as §1
The soil was sprayed with a commercially available composition comprising indaziflam (commercial name […]) using a single nozzle with a compressed CO2 backpack set at 32 psi for 25 gallons per acre. Overhead irrigation was set for twice daily.

[2] = system: Virginia pine (P. virginiana); experiment: Pinus virginiana seed pot test, soil sprayed with indaziflam composition; conditions: Esplanade 200SC soil spray; for root weight: untreated root approx. 0.05 grams; for shoot weight: untreated shoot approx. 0.11 grams
Method: Virginia pine (P. virginiana) seeds were soaked in water for 24 hours and then placed in cold storage in a punctured bag for four weeks.
as §1, §2

With `Cc1ccc2c(c1)[C@H](Nc1nc(N)nc(C(C)F)n1)[C@@H](C)C2` (mixture of isomers) [indaziflam, N2[(1R,2S)-2,3-dihydro-2,6-dimethyl-1H-inden-1-yl]-6-[(1RS)-1-fluoroethyl]-1,3,5-triazine-2,4-diamine] the root weight (Loblolly pine (P. taeda); 50 g indaziflam per hectare) was “approximately 0.15 grams”, the shoot weight (Loblolly pine (P. taeda); 50 g indaziflam per hectare) was “approximately 0.30 grams” and the root weight (Loblolly pine (P. taeda); 71.4 g indaziflam per hectare) was “approximately 0.25 grams”. The shoot weight (Loblolly pine (P. taeda); 71.4 g indaziflam per hectare) was “approximately 0.50 grams”, the root weight (Loblolly pine (P. taeda); 100 g indaziflam per hectare) was “approximately 0.14 grams” and the shoot weight (Loblolly pine (P. taeda); 100 g indaziflam per hectare) was “approximately 0.22 grams”. For the same compound, the root weight ([1]; 50 g indaziflam per hectare) was “approximately 0.13 grams”, the shoot weight ([1]; 50 g indaziflam per hectare) was “approximately 0.34 grams” and the root weight ([1]; 71.4 g indaziflam per hectare) was “approximately 0.27 grams”. For the same compound, the shoot weight ([1]; 71.4 g indaziflam per hectare) was “approximately 0.40 grams”, the root weight ([1]; 100 g indaziflam per hectare) was “approximately 0.22 grams” and the shoot weight ([1]; 100 g indaziflam per hectare) was “approximately 0.24 grams”. For the same compound, the root weight ([2]; 50 g indaziflam per hectare) was “approximately 0.14 grams”, the shoot weight ([2]; 50 g indaziflam per hectare) was “approximately 0.23 grams” and the root weight ([2]; 71.4 g indaziflam per hectare) was “approximately 0.27 grams”. For the same compound, the shoot weight ([2]; 71.4 g indaziflam per hectare) was “approximately 0.41 grams” and the root weight ([2]; 100 g indaziflam per hectare) was “approximately 0.22 grams”.
